# Assays:
# artificial skin = assay: Quantitative analysis of ceramide in artificial skin; format: cell-based; parameters: C18SM: unit not given here; conditions: for C18SM / ceramide in artificial skin (ng/mg skin): artificial skin, LC analysis, corrected for skin weight
# Procedure: Artificial skin was weighed and put in a 4-mL glass vial. After adding 2400 μL of CHCl3/MeOH (=½) and 100 μL of IS STD, the artificial skin was cut into small pieces with scissors. After sonication for 30 minutes, solutions mixing sodium lauryl sulfate (SLS) to each of dodecanoic acid 2-dodecanoylamino-3-hydroxy-2-hydroxymethyl-propyl ester obtained from the Example 2, phosphate buffered saline (PBS), octyl methoxycinnamate (OMC) and PC-104, as described in Table 2, were filtered through a PTFE syringe filter, and 1250 μL of each filtrate was transferred to an EP tube.
# After completely removing the solvent using a speed vacuum dryer, the residue was redissolved by adding 100 μL of an analytical mobile phase. After centrifugation, only the supernatant was taken and analyzed after transferring to an LC vial. The concentration of ceramide was corrected for the weight of the artificial skin.
# [1] = tested on: Keraskin™ artificial skin; assay: Recovery of damaged artificial skin (measurement of transepithelial electrical resistance); format: cell-based; conditions: for Change of TEER (%): Keraskin artificial skin, TEER after 24 h post-incubation divided by the initial value
# Procedure: Transepithelial electrical resistance was measured in order to test recovery of damaged artificial skin by the compound of Example 2. Dodecanoic acid 2-dodecanoylamino-3-hydroxy-2-hydroxymethyl-propyl ester obtained from the Example 2 and phosphate buffered saline (PBS), octyl methoxycinnamate (OMC) and PC-104 were tested for comparison.
# Transepithelial electrical resistance (TEER) of Keraskin™ purchased from MCTT was measured after 22 hours of pre-incubation. After placing the Keraskin™ on a 6-well plate, 400 μL of a medium was added in an insert and 5 mL of the medium was added outside the insert such that an even level was achieved inside and outside the insert. Then, measurement was made with the electrode tips of a resistance meter inside and outside the insert. TEER was measured for all the inserts, prior to the test, after treatment with the substances of Example 2 and Comparative Examples 1-3 and 24 hours after post-incubation. The TEER after the post-incubation was divided by the initial value to calculate the change in %.
# [2] = test substance mixed with sodium lauryl sulfate (SLS)
SMILES,C18SM (artificial skin; [2]),ceramide in artificial skin (ng/mg skin) (artificial skin; [2]),"ceramide content in the artificial skin, in words (artificial skin; compared with PC-104)",Change of TEER (%) [1] [%],"effect of recovering damaged artificial skin (TEER), in words ([1]; compared with PC-104)",C18SM (artificial skin; PBS instead of SLS),ceramide in artificial skin (ng/mg skin) (artificial skin; PBS instead of SLS)
"CCCCCCCCCCCC(=O)NC(CO)(CO)COC(=O)CCCCCCCCCCC [Example 2, dodecanoic acid 2-dodecanoylamino-3-hydroxy-2-hydroxymethyl-propyl ester]",1811.5,1152.4,higher than that for PC-104,70.8,higher than the conventionally used PC-104,,
CCCCCCCCCCCCCCCC(=O)N(CCO)CC(O)CN(CCO)C(=O)CCCCCCCCCCCCCCC [Comparative Example 3],1141.1,995.5,,35.7,,,
"CCCCC(CC)COC(=O)C=Cc1ccc(OC)cc1 (stereo not shown) [Comparative Example 2, octyl methoxycinnamate]",843.6,758.3,,30.9,,1747.3,990.8
